Where two headings read alike, the source gives them in different places.
Tests used:
dopamine D2 receptors [1] = target: T1, dopamine D2 receptors (Homo sapiens (Human), UniProt P14416); test: Dopamine D2 receptor radioligand competition binding assay ([3H]-Methylspiperone); conditions: [3H]-Methylspiperone 0.3 to 0.5 nM, 293T membranes
Protocol: The affinity of the compounds of the present disclosure for dopamine D2 receptors was determined by a radioligand competition binding assay.
In the first step, a cell membrane component containing specific dopamine D2 receptors was prepared. A 10 cm culture dish was used for transfection with […] of dopamine D2 receptors and 40 μL of polyethylenimine (PEI hereafter). […] A vacuum pump was used to suck off the culture medium, 3 mL of lysis buffer was added to each culture dish, and the cells were placed in a 4° C. cold room for 10 minutes. After the cells were detached, the cells were transferred to a 15 mL centrifuge tube and centrifuged at 1500 rpm for 5 minutes at 4° C., and the supernatant was discarded. The cell pellet was transferred to a tissue homogenizer, and 3 mL of lysis buffer was added and fully ground until the cells were broken. Then, cell suspension was equally aliquoted into several EP tubes, centrifuged at 12000 rpm for 5 minutes at 4° C., and the supernatant was discarded. The precipitate was the cell membrane component containing the dopamine D2 receptors.
First, a standard binding buffer was added to the cell membrane component containing the dopamine D2 receptors, and the cell membrane was disrupted and resuspended with an electric tissue homogenizer. 30 μL of membrane protein suspension was added to each well of a 96-well plate. Then, 30 μL of different drugs were added to the 96-well plate sequentially from bottom to top to ensure that the final drug concentrations were 10^−5 M, 10^−6 M, 10^−7 M, 10^−8 M, 10^−9 M, and 0 M, with two replicates per treatment. Next, 30 μL of [3H]-Methylspiperone was added to each well of the 96-well plate. The plate was incubated at room temperature in the dark for 2 hours. Detection was conducted. The machine readout value reflected the amount of [3H]-Methylspiperone bound on the membrane, and after further data processing, the affinity Ki values of different compounds for the dopamine D2 receptors were obtained.

dopamine D2 receptors [2] = target: T1, dopamine D2 receptors; test: Dopamine D2 receptor Gαi1 BRET (G protein trimer dissociation); type: cell-based; conditions: for Emax: relative to endogenous ligand dopamine, read-out: Gαi1 BRET Emax % ± SEM
Protocol: (§1) To examine the downstream G-protein signaling pathway mediated by dopamine D2 receptors, on the first day, a 6 cm culture dish was used for transfection with 1 μg of dopamine D2 receptors, 1 μg of Gαi1 containing C-terminal seaweed luciferase (Gαi1-Rluc), 1 μg of Gβ3, 1 μg of Gγ9 containing C-terminal green fluorescent protein (Gγ9-GFP) mixed with 16 μL of PEI. At the same time, in order to examine the downstream β-arrestin2 signaling pathway mediated by dopamine D2 receptors, on the first day, a 6 cm culture dish was used for transfection with […] of dopamine D2 receptors containing C-terminal seaweed luciferase (D2-Rluc), […] of G protein-coupled receptor kinase 2 (GRK2), […] of β-arrestin2 containing N-terminal green fluorescent protein (GFP2-ARRB2) mixed with 14 μL of PEI. The next day, the confluent cells of a 6 cm culture dish were digested and reseeded into a 96-well plate with 100 μL of culture medium added to each well. On the third day, the drugs were added for test. The 96-well plate was taken out from the cell incubator to decant the culture medium, 40 μL of the substrate coelenterazine 400a (final concentration of 5 μM) was added to each well, and then 20 μL of different drugs were added sequentially from left to right to ensure that the final concentration of the drug decreased gradually from bottom to top, with two replicates per treatment. Finally, the prepared samples were loaded on machine for test. The machine readout value reflected the recruitment of β-arrestin2 to the membrane or the dissociation of G protein trimer. The former indicated the degree of activation of the β-arrestin2 signaling pathway downstream of the dopamine D2 receptors, and the latter indicated the degree of activation of the G protein signaling pathway downstream of the dopamine D2 receptors.

dopamine D2 receptors [3] = target: T1, dopamine D2 receptors; test: Dopamine D2 receptor β-arrestin2 BRET (recruitment); type: cell-based; conditions: for Emax: relative to endogenous ligand dopamine, read-out: β-arrestin2 BRET Emax % ± SEM
Protocol: as §1

[4] = read-out: Affinity pKi ± SEM (converted)
[5] = unit printed only in Cariprazine cell, read-out: Gαi1 BRET EC50
[6] = unit printed only in Cariprazine cell, read-out: β-arrestin2 BRET EC50
[7] = read-out: Gαi1 BRET pEC50 ± SEM (converted)

T1 sequence (P14416 whole entry): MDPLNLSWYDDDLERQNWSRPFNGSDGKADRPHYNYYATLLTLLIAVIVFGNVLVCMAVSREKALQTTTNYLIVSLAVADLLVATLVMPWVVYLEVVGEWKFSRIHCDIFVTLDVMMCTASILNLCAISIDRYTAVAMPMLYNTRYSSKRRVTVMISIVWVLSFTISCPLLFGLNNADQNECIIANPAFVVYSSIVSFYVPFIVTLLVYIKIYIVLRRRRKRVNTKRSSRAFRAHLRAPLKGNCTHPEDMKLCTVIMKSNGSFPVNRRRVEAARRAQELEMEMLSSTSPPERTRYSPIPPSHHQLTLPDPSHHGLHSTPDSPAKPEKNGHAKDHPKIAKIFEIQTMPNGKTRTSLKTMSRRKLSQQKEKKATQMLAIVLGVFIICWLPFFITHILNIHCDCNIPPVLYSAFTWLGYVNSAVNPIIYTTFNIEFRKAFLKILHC

Emax (dopamine D2 receptors [2]) | EC50 (dopamine D2 receptors [2]; [5]) | Emax (dopamine D2 receptors [3]) | EC50 (dopamine D2 receptors [3]; [6]) | EC50 (dopamine D2 receptors [2]; [7]) | Compound | Ki (dopamine D2 receptors [1]; read-out: Affinity Ki) | Ki (dopamine D2 receptors [1]; [4]) | Gαi1 BRET pEC50 ± SEM (dopamine D2 receptors [2]) | Affinity pKi ± SEM (dopamine D2 receptors [1]) | EC50 (dopamine D2 receptors [3]; read-out: β-arrestin2 BRET pEC50 ± SEM (converted)) | β-arrestin2 BRET pEC50 ± SEM (dopamine D2 receptors [3])
 |  |  |  |  | COc1cccc2c3c(oc12)CN(CCNC(=O)C1CCOCC1)CC3 [I-A14, N-(2-(8-methoxy-3,4-dihydrobenzofuro[2,3-c]pyridin-2(1H)-yl)ethyl)tetrahydro-2H-pyran-4-carboxamide] | 752 nM |  |  |  |  | 
 |  |  |  |  | CCOc1cccc2c3c([nH]c12)CN(CCCCOc1ccc2ccc(=O)[nH]c2c1)CC3 [I-B2, 7-(4-(8-ethoxy-1,3,4,9-tetrahydro-2H-pyrido[3,4-b]indol-2-yl)butoxy)quinolin-2(1H)-one] | 78.9 nM | 77.6 nM |  |  |  | 
27% | 61.3 nM | 107% | 4.61 nM |  | COc1cccc2c3c(oc12)CN(C/C=C/COc1ccc2ccc(=O)[nH]c2c1)CC3 [I-A10, (E)-7-((4-(8-methoxy-3,4-dihydrobenzofuro[2,3-c]pyridin-2(1H)-yl)but-2-en-1-yl)oxy)quinolin-2(1H)-one] | 139 nM |  | (7.21 ± 0.12) | (6.85 ± 0.19) |  | 
49% | 276 nM | 92% | 2.45 nM |  | COc1cccc2c1cc1n2CCN(C/C=C/COc2ccc3c(c2)NC(=O)CC3)C1 [I-C6, (E)-7-((4-(9-methoxy-3,4-dihydropyrazino[1,2-a]indol-2(1H)-yl)but-2-en-1-yl)oxy)-3,4-dihydroquinolin-2(1H)-one] |  |  |  |  |  | 
14% | 43.3 nM | 51% | 133 nM | 61.7 nM | COc1cccc2c3c([nH]c12)CN(CC1(O)CCCCC1)CC3 [I-B9, 1-((8-methoxy-1,3,4,9-tetrahydro-2H-pyrido[3,4-b]indol-2-yl)methyl)cyclohexan-1-ol] |  |  |  |  |  | 
 |  |  |  |  | CCOc1cccc2c3c([nH]c12)CN(CCCOc1ccc2c(c1)NC(=O)CC2)CC3 [I-B6, 7-(3-(8-ethoxy-1,3,4,9-tetrahydro-2H-pyrido[3,4-b]indol-2-yl)propoxy)-3,4-dihydroquinolin-2(1H)-one] | 266 nM |  |  | (6.58 ± 0.41) |  | 
35% | 43.6 nM | 76% | 6.53 nM |  | COc1cccc2c3c([nH]c12)CN(CCCOc1ccc2c(c1)NC(=O)CC2)CC3 [I-B5, 7-(3-(8-methoxy-1,3,4,9-tetrahydro-2H-pyrido[3,4-b]indol-2-yl)propoxy)-3,4-dihydroquinolin-2(1H)-one] |  |  |  |  |  | 
67% | 79 nM | 41% | 180 nM | 95.5 nM | COc1cccc2c1nc1n2CCN(CC2(O)CCCCC2)C1 [I-D7, 1-((9-methoxy-3,4-dihydrobenzo[4,5]imidazo[1,2-a]pyrazin-2(1H)-yl)methyl)cyclohexan-1-ol] |  |  |  |  |  | 
 |  |  |  |  | COc1cccc2c3c([nH]c12)CN(CCC1CC(NC(=O)N(C)C)C1)CC3 (stereo not shown) [I-B10, 3-(3-(2-(8-methoxy-1,3,4,9-tetrahydro-2H-pyrido[3,4-b]indol-2-yl)ethyl)cyclobutyl)-1,1-dimethylurea] | 23.2 nM |  |  | (7.63 ± 0.57) |  | 
71% | 130 nM | 97% | 18.3 nM |  | COc1cccc2c1nc1n2CCN(CCCOc2ccc3ccc(=O)[nH]c3c2)C1 [I-D3, 7-(3-(9-methoxy-3,4-dihydrobenzo[4,5]imidazo[1,2-a]pyrazin-2(1H)-yl)propoxy)quinolin-2(1H)-one] |  |  |  |  |  | 
49% | 4.37 nM | 29% | 6.7 nM | 3.67 nM | CCOc1cccc2c3c(oc12)CN(CC[C@H]1CC[C@H](NC(=O)N(C)C)CC1)CC3 [I-A17, 3-(trans-4-(2-(8-ethoxy-3,4-dihydrobenzofuro[2,3-c]pyridin-2(1H)-yl)ethyl)cyclohexyl)-1,1-dimethylurea] |  |  |  |  |  | 
 |  |  |  |  | COc1cccc2c1nc1n2CCN(CC[C@H]2CC[C@H](NC(=O)N(C)C)CC2)C1 [I-D6, 3-(trans-4-(2-(9-methoxy-3,4-dihydrobenzo[4,5]imidazo[1,2-a]pyrazin-2(1H)-yl)ethyl)cyclohexyl)-1,1-dimethylurea] | 16.8 nM | 12.9 nM |  |  |  | 
23% | 39.8 nM | 45% | 128 nM |  | CCOc1cccc2c1cc1n2CCN(CC[C@H]2CC[C@H](NC(=O)N(C)C)CC2)C1 [I-C11, 3-(trans-4-(2-(9-ethoxy-3,4-dihydropyrazino[1,2-a]indol-2(1H)-yl)ethyl)cyclohexyl)-1,1-dimethylurea] |  |  |  |  |  | 
46% | 160 nM | 66% | 38.8 nM | 162 nM | COc1cccc2c1nc1n2CCN(C/C=C/COc2ccc3c(c2)NC(=O)CC3)C1 [I-D5, (E)-7-((4-(9-methoxy-3,4-dihydrobenzo[4,5]imidazo[1,2-a]pyrazin-2(1H)-yl)but-2-en-1-yl)oxy)-3,4-dihydroquinolin-2(1H)-one] |  |  |  |  |  | 
 |  |  |  |  | CCOc1cccc2c3c([nH]c12)CN(CCCOc1ccc2ccc(=O)[nH]c2c1)CC3 [I-B4, 7-(3-(8-ethoxy-1,3,4,9-tetrahydro-2H-pyrido[3,4-b]indol-2-yl)propoxy)quinolin-2(1H)-one] | 728 nM |  |  | (6.13 ± 0.26) |  | 
66% | 23.4 nM | 52% | 54.4 nM | 38.9 nM | COc1cccc2c1cc1n2CCN(CC2(O)CCCCC2)C1 [I-C12, 1-((9-methoxy-3,4-dihydropyrazino[1,2-a]indol-2(1H)-yl)methyl)cyclohexan-1-ol] |  |  |  |  |  | 
81% | 159 nM | 89% | 33.6 nM |  | COc1cccc2c1nc1n2CCN(CCCOc2ccc3c(c2)NC(=O)CC3)C1 [I-D4, 7-(3-(9-methoxy-3,4-dihydrobenzo[4,5]imidazo[1,2-a]pyrazin-2(1H)-yl)propoxy)-3,4-dihydroquinolin-2(1H)-one] |  |  |  |  |  | 

Compound | Emax (dopamine D2 receptors [2]) | EC50 (dopamine D2 receptors [2]; [5]) | Emax (dopamine D2 receptors [3]) | EC50 (dopamine D2 receptors [3]; [6]) | EC50 (dopamine D2 receptors [2]; [7]) | Ki (dopamine D2 receptors [1]; read-out: Affinity Ki) | Ki (dopamine D2 receptors [1]; [4]) | Gαi1 BRET pEC50 ± SEM (dopamine D2 receptors [2]) | Affinity pKi ± SEM (dopamine D2 receptors [1]) | EC50 (dopamine D2 receptors [3]; read-out: β-arrestin2 BRET pEC50 ± SEM (converted)) | β-arrestin2 BRET pEC50 ± SEM (dopamine D2 receptors [3])
COc1cccc2c1nc1n2CCN(CCCCOc2ccc3c(c2)NC(=O)CC3)C1 [I-D2, 7-(4-(9-methoxy-3,4-dihydrobenzo[4,5]imidazo[1,2-a]pyrazin-2(1H)-yl)butoxy)-3,4-dihydroquinolin-2(1H)-one] | 71% | 355 nM | 106% | 70.1 nM | 324 nM |  |  |  |  | 69.2 nM | 
COc1cccc2c3c(oc12)CN(CCCCOc1ccc2ccc(=O)n(C)c2c1)CC3 [I-A4, 7-(4-(8-methoxy-3,4-dihydrobenzofuro[2,3-c]pyridin-2(1H)-yl)butoxy)-1-methylquinolin-2(1H)-one] | 55% | 709 nM | 65% | 81.2 nM |  |  |  | (6.16 ± 0.06) |  |  | (7.17 ± 0.18)
CCOc1cccc2c1cc1n2CCN(CCCCOc2ccc3ccc(=O)[nH]c3c2)C1 [I-C10, 7-(4-(9-ethoxy-3,4-dihydropyrazino[1,2-a]indol-2(1H)-yl)butoxy)quinolin-2(1H)-one] | 20% | 118 nM | 49% | 828 nM | 120 nM |  |  |  |  |  | 
COc1cccc2c1nc1n2CCN(CCCCOc2ccc3ccc(=O)[nH]c3c2)C1 [I-D1, 7-(4-(9-methoxy-3,4-dihydrobenzo[4,5]imidazo[1,2-a]pyrazin-2(1H)-yl)butoxy)quinolin-2(1H)-one] | 77% | 267 nM | 100% | 56 nM | 263 nM |  |  |  |  |  | 

From patent US20250109139A1, “TRICYCLIC COMPOUND, AND PREPARATION METHOD THEREFOR AND USE THEREOF” (SHANGHAITECH UNIVERSITY, priority 2022, published 2025)
